Measurements published in US5688507A, “Methods and compositions for inhibiting thrombogenesis” (Hamilton Civic Hospitals Research Development, Inc., priority 1995, dated 1997).

Assays:
fibrin = conditions: stated without experiment; cited from earlier work
fibrin I (desAA fibrin) = assay: Solid-phase binding of 125I-thrombin to fibrin-coated microtiter wells (ovalbumin-coated wells as non-specific control); conditions: increasing concentrations, 2 h at 37° C., ovalbumin-well binding subtracted (FIG. 4)
Procedure: To examine the ability of various agents to displace thrombin from fibrin, a solid-phase system was developed wherein fibrin was immobilized on the surface of a microtiter plate well. Radiolabeled thrombin was then bound to the fibrin-coated surface, and after washing, the ability of various agents to displace the bound thrombin was evaluated. In this model, the binding of thrombin to immobilized ovalbumin serves as an index of nonspecific binding. The details of the model are as follows: after adding 100 μl of fibrinogen or ovalbumin (each at a concentration of 1 mg/ml) to the wells of microtiter plate, the plates were incubated for 18 hours at 4° C. The wells were then washed three times with 250 μl aliquots of phosphate buffered saline, pH 7.4, containing 0.1% ovalbumin and 6 mg/ml PEG 8,000 (POP buffer). Based on preliminary studies using radiolabeled fibrinogen or ovalbumin, each well bound 1.3±0.2 μg of fibrinogen, or 1.0±0.1 μg of ovalbumin. […] The reptilase completely converted the immobilized fibrinogen to fibrin I because quantitative amounts of fibrinopeptide A (2 mol fibrinopeptide A/mol of bound fibrinogen) was recovered in the supernatant buffer. […] At the end of the incubation period, the wells were washed three times and then counted to determine the concentration of thrombin bound to the fibrin-coated (+) or ovalbumin-coated (.largecircle.) wells (FIG. 4). […]

Substance: thrombin
- native binding affinity between fibrin and thrombin in thrombus (fibrin): about 5×10^-5 M^-1
- specific binding to fibrin-coated wells (fibrin I (desAA fibrin)): binds to fibrin in a saturable manner
